Tests used:
blood platelets (PRP) = experiment: Platelet aggregation-inhibiting activity in vitro (collagen, rat platelet-rich plasma); format: cell-based, male SD rats; conditions: final concentration 100 μg/ml, 37° C.
Method: (Platelet aggregation-inhibiting activity)
Blood was collected from the abdominal aorta of male SD rats (body weight: 250-300 g) which were anesthetized with ether. Nine volumes of said blood were mixed with one volume of an aqueous 3.8% (w/v) trisodium citrate solution, and the mixture was centrifuged at 500×g for 5 minutes to give platelet-rich plasma (hereinafter referred to as "PRP") as the supernatant solution. The bottom layer was further centrifuged at 1000×g for 10 minutes to give platelet-poor plasma (hereinafter referred to as "PPP") as the supernatant solution. PRP was diluted with PPP so that the blood platelet count was 8-10×10^5 /mm^3. Then, a mixture of 200 μl of said diluted PRP and 25 μl of a test compound solution (final concentration: 100 μg/ml) was introduced into a glass cell of SIENCO aggregometer (Sienco Inc., Morrison, Colo. Model DP-247-D). After the mixture was stirred at 1100 rpm at 37° C. for 2 minutes, 25 μl of a collagen solution (prepared by Holmsen's method described in Biochim. Biophys. Acta, Vol. 186, page 254(1969)) was added thereto, and the percentage inhibition of platelet aggregation was calculated in accordance with the following formula from the degree of the platelet aggregation which was estimated by Born's method (Nature, 194, page 927([…])). [formula]

[1] = tested on: serum cholesterol and serum triglyceride; experiment: Hypolipidemic activity in rats (serum cholesterol and triglyceride, one-week diet); format: in vivo; conditions: male SD rats, 50 mg % in diet
Method: (§1) A test compound (50 mg %) was added to a commercial diet, and male SD rats (body weight: 120-140 g, a group of 5 rats) were fed with the diet ad libitum for one week. After the experimental period, blood was collected from the tail vein of the rats under ether anesthesia. Serum cholesterol and serum triglyceride were measured according to the methods of Zak (Amer. J. Clin. Pathol., Vol. 24, page 1307(1954)) and Van Handel-Zilversmit (J. Lab. & Clin. Med., Vol. 55, page 152(1957)), respectively. Then, the increase (%) in liver weight and the decrease (%) in serum cholesterol or triglyceride were calculated according to the following formulae: [formula]

platelet aggregation = experiment: Platelet aggregation-inhibiting activity after oral administration (ex vivo); format: in vivo; conditions: 100 mg/kg, one hour after administration, male SD rats, collagen
[2] = Increase in liver weight in rats (one-week diet); format: in vivo; conditions: male SD rats, 50 mg % in diet
Method: as §1

SMILES	inhibition at 100 µg/mL (blood platelets (PRP))	Decrease (%) in serum cholesterol [1]	Decrease (%) in serum triglyceride [1]	Percentage inhibition of platelet aggregation (platelet aggregation)	increase (%) in liver weight [2]
O=C(O)Cc1nc(-c2ccc(F)cc2)oc1-c1cccs1 [2-[2-(4-fluorophenyl)-5-(2-thienyl)-4-oxazolyl]acetic acid]	≥ 10%	17%	27%	–	–
O=C(O)Cc1nc(-c2ccc(F)cc2)oc1-c1ccsc1 [2-[2-(4-fluorophenyl)-5-(3-thienyl)-4-oxazolyl]acetic acid]	≥ 10%	23%	39%	93 ± 6%	–
CCCCCOC(=O)Cc1nc(-c2ccccc2)oc1-c1ccsc1 [n-pentyl 2-[2-phenyl-5-(3-thienyl)-4-oxazolyl]acetate]	≥ 10%	20%	30%	–	–
CCOC(=O)Cc1nc(-c2ccc(F)cc2)oc1-c1ccsc1 [ethyl 2-[2-(4-fluorophenyl)-5-(3-thienyl)-4-oxazolyl]acetate]	≥ 10%	19%	31%	–	–
O=C(O)Cc1nc(-c2ccc(Cl)cc2)oc1-c1ccsc1 [2-[2-(4-chlorophenyl)-5-(3-thienyl)-4-oxazolyl]acetic acid]	≥ 10%	18%	49%	–	–
CCOC(=O)C(C)(C)Oc1ccc(Cl)cc1 [Clofibrate, 2-(4-chlorophenoxy)-2-methylpropanoic acid ethyl ester, reference compound]	< 10%	15%	16%	–	12%
CCCCCOC(=O)Cc1nc(-c2ccc(Cl)cc2)oc1-c1ccsc1 [n-pentyl 2-[2-(4-chlorophenyl)-5-(3-thienyl)-4-oxazolyl]acetate]	–	19%	45%	–	–
CCOC(=O)Cc1nc(-c2ccc(F)cc2)oc1-c1cccs1 [ethyl 2-[2-(4-fluorophenyl)-5-(2-thienyl)-4-oxazolyl]acetate]	≥ 10%	17%	43%	–	–

Source: US4460596A, “Thienyloxazolylacetic acid derivatives and process for preparing” (Tanabe Seiyaku Co., Ltd., priority 1981, dated 1984)
